In patent US12264134B2 (Merck Sharp & Dohme LLC, priority 2018, dated 2025):

molecular target: IDO1 (Homo sapiens, UniProt P14902); test: IDO1 Cellular Assay in HeLa Cells Stimulated with IFNγ; format: cell-based; conditions: read-out: HeLa Cell Potency, IC50
Sequence (P14902 whole entry): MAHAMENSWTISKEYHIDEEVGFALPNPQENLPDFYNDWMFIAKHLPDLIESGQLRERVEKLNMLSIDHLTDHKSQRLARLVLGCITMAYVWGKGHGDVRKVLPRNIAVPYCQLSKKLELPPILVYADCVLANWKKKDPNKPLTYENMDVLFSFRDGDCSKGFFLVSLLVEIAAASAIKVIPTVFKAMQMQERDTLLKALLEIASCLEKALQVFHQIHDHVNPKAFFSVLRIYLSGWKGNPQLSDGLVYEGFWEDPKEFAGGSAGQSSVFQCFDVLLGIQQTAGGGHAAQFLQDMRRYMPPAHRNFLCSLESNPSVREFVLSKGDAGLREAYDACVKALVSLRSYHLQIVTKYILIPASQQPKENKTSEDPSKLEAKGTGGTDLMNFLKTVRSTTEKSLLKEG

Compound | IC50 [nM]
Cc1cccc(N2CCN(C(=O)Cn3nc(C(=O)N4CCCC4)c4c3CC(C)(C)CC4)CC2)c1C [Example 3, 1-[4-(2,3-dimethylphenyl)piperazin-1-yl]-2-[6,6-dimethyl-3-(pyrrolidine-1-carbonyl)-5,7-dihydro-4H-indazol-1-yl]ethanone] | 130
Cc1cccc(N2CCN(C(=O)Cn3nc(C(=O)N4CCN(C(=O)CO)C[C@@H]4C)c4c3CCC4)CC2)c1C [Example 401, (S)-1-(4-(2,3-dimethylphenyl)piperazin-1-yl)-2-(3-(4-(2-hydroxyacetyl)-2-methylpiperazine-1-carbonyl)-5,6-dihydrocyclopenta[c]pyrazol-1(4H)-yl)ethanone] | 12.9
Cc1cccc(N2CCN(C(=O)Cn3nc(C(=O)N4CCC(F)(CO)CC4)c4c3CCC4)CC2)c1C [Example 102, 1-[4-(2,3-dimethylphenyl)piperazin-1-yl]-2-{3-[4-fluoro-4-(hydroxymethyl)piperidine-1-carbonyl]-5,6-dihydrocyclopenta[c]pyrazol-1(4H)-yl}ethan-1-one] | 4.38
O=C(Cn1nc(C(=O)N2CCC(O)CC2)c2c1CCC2)N1CCN(C2CCc3ccccc32)CC1 (stereo not drawn) [Example 435, 1-(4-(2,3-dihydro-1H-inden-1-yl)piperazin-1-yl)-2-(3-(4-hydroxypiperidine-1-carbonyl)-5,6-dihydrocyclopenta[c]pyrazol-1(4H)-yl)ethanone] | 264
Cc1cccc(N2CCN(C(=O)Cn3nc(C(=O)N4CCN(C)[C@@H](C)C4)c4c3CCC4)CC2)c1C [Example 166, 1-[4-(2,3-dimethylphenyl)piperazin-1-yl]-2-{3-[(3S)-3,4-dimethylpiperazine-1-carbonyl]-5,6-dihydrocyclopenta[c]pyrazol-1(4H)-yl}ethan-1-one] | 6.18
Cc1cccc(N2CCN(C(=O)Cn3nc(C(=O)N4CCC(F)(F)C(O)C4)c4c3CCC4)CC2)c1C (stereo not drawn) [Example 212, 2-[3-(4,4-difluoro-3-hydroxy-piperidine-1-carbonyl)-5,6-dihydro-4H-cyclopenta[c]pyrazol-1-yl]-1-[4-(2,3-dimethylphenyl)piperazin-1-yl]ethanone] | 79.9
Cc1cccc(N2CCN(C(=O)Cn3nc(C(=O)N4CCC(C)(C(N)=O)CC4)c4c3C[C@H]3C[C@@H]43)CC2)c1C [Example 220, 1-[(3bR,4aR)-1-{2-[4-(2,3-dimethylphenyl)piperazin-1-yl]-2-oxoethyl}-3b,4,4a,5-tetrahydro-1H-cyclopropa[3,4]cyclopenta[1,2-c]pyrazole-3-carbonyl]-4-methylpiperidine-4-carboxamide] | 1.53
COc1cccc(N2CCN(C(=O)Cn3nc(C(=O)N4C[C@@H](C)O[C@@H](C)C4)c4c3CCC4)CC2)c1F [Example 39, 2-{3-[(2R,6S)-2,6-dimethylmorpholine-4-carbonyl]-5,6-dihydrocyclopenta[c]pyrazol-1(4H)-yl}-1-[4-(2-fluoro-3-methoxyphenyl)piperazin-1-yl]ethan-1-one] | 374
Cc1c(C(F)F)cccc1N1CCN(C(=O)Cn2nc(C(=O)N3CC[C@H](O)[C@H](F)C3)c3c2C[C@H]2C[C@@H]32)CC1 [Example 348, 1-(4-(3-(difluoromethyl)-2-methylphenyl)piperazin-1-yl)-2-((3bR,4aR)-3-((3R,4S)-3-fluoro-4-hydroxypiperidine-1-carbonyl)-3b,4,4a,5-tetrahydro-1H-cyclopropa[3,4]cyclopenta[1,2-c]pyrazol-1-yl)ethanone] | 1.38
Cc1cc(F)ccc1N1CCN(C(=O)Cn2nc(C(=O)N3C[C@@H](C)O[C@@H](C)C3)c3c2CCC3)CC1 [Example 46, 2-{3-[(2R,6S)-2,6-dimethylmorpholine-4-carbonyl]-5,6-dihydrocyclopenta[c]pyrazol-1(4H)-yl}-1-[4-(4-fluoro-2-methylphenyl)piperazin-1-yl]ethan-1-one] | 45.2
Cc1c(C(F)F)cccc1N1CCN(C(=O)Cn2nc(C(=O)N3CCO[C@@H](CO)C3)c3c2C[C@H]2C[C@@H]32)CC1 [Example 350, 1-(4-(3-(difluoromethyl)-2-methylphenyl)piperazin-1-yl)-2-((3bR,4aR)-3-((R)-2-(hydroxymethyl)morpholine-4-carbonyl)-3b,4,4a,5-tetrahydro-1H-cyclopropa[3,4]cyclopenta[1,2-c]pyrazol-1-yl)ethanone] | 5.66
Cc1c(F)ccc(N2CCN(C(=O)Cn3nc(C(=O)N4CC[C@H](O)[C@@H](F)C4)c4c3CCCC4)CC2)c1C [Example 459, 1-(4-(4-fluoro-2,3-dimethylphenyl)piperazin-1-yl)-2-(3-((3S,4S)-3-fluoro-4-hydroxypiperidine-1-carbonyl)-4,5,6,7-tetrahydro-1H-indazol-1-yl)ethanone] | 1.17
Cc1cccc(N2CCN(C(=O)Cn3nc(C(=O)N4CC[C@H](C(C)(C)O)C4)c4c3C[C@H]3C[C@@H]43)CC2)c1C [Example 262, 1-[4-(2,3-dimethylphenyl)piperazin-1-yl]-2-{(3bR,4aR)-3-[(3S)-3-(2-hydroxypropan-2-yl)pyrrolidine-1-carbonyl]-3b,4,4a,5-tetrahydro-1H-cyclopropa[3,4]cyclopenta[1,2-c]pyrazol-1-yl}ethan-1-one] | 0.82
Cc1cccc(N2CCN(C(=O)Cn3nc(C(=O)N4CC[C@@H](O)[C@@H](O)C4)c4c3CCC4)CC2)c1C [Example 104, 2-{3-[(3S,4R)-3,4-dihydroxypiperidine-1-carbonyl]-5,6-dihydrocyclopenta[c]pyrazol-1(4H)-yl}-1-[4-(2,3-dimethylphenyl)piperazin-1-yl]ethan-1-one] | 49.6
Cc1cccc(N2CCN(C(=O)Cn3nc(C(=O)N4CCN(C(=O)CO)[C@H](C)C4)c4c3CCC4)CC2)c1C [Example 400, (R)-1-(4-(2,3-dimethylphenyl)piperazin-1-yl)-2-(3-(4-(2-hydroxyacetyl)-3-methylpiperazine-1-carbonyl)-5,6-dihydrocyclopenta[c]pyrazol-1(4H)-yl)ethanone] | 25.6
Cc1cccc(N2CCN(C(=O)Cn3nc(C(=O)N4CC[C@H](O)[C@@H](F)C4)c4c3CC(O)C4)CC2)c1C (single isomer, unassigned) [Example 415] | 341
Cc1cccc(N2CCN(C(=O)Cn3nc(C(=O)N4C[C@H](O)C[C@H]4C)c4c3C[C@H]3C[C@@H]43)CC2)c1C [Example 292, 1-[4-(2,3-dimethylphenyl)piperazin-1-yl]-2-{(3bR,4aR)-3-[(2R,4R)-4-hydroxy-2-methylpyrrolidine-1-carbonyl]-3b,4,4a,5-tetrahydro-1H-cyclopropa[3,4]cyclopenta[1,2-c]pyrazol-1-yl}ethan-1-one] | 3.7
Cc1cccc(N2CCN(C(=O)Cn3nc(C(=O)N4CC[C@H](F)[C@@H](O)C4)c4c3CCC4)CC2)c1C (racemic) [Example 208, 1-[4-(2,3-dimethylphenyl)piperazin-1-yl]-2-[3-[rac-(3S,4S)-4-fluoro-3-hydroxy-piperidine-1-carbony]-5,6-dihydro-4H-cyclopenta[c]pyrazol-1-yl]ethanone] | 30.9
C[C@@H]1CN(C(=O)c2nn(CC(=O)N3CCN(c4cc(F)ccc4F)CC3)c3c2CCC3)C[C@H](C)O1 [Example 76, 1-[4-(2,5-difluorophenyl)piperazin-1-yl]-2-{3-[(2R,6S)-2,6-dimethylmorpholine-4-carbonyl]-5,6-dihydrocyclopenta[c]pyrazol-1(4H)-yl}ethan-1-one] | 439
COc1c(F)cc(N2CCN(C(=O)Cn3nc(C(=O)N4C[C@@H](C)O[C@@H](C)C4)c4c3CCC4)CC2)cc1F [Example 27, 1-[4-(3,5-difluoro-4-methoxyphenyl)piperazin-1-yl]-2-{3-[(2R,6S)-2,6-dimethylmorpholine-4-carbonyl]-5,6-dihydrocyclopenta[c]pyrazol-1(4H)-yl}ethan-1-one] | 110
O=C(Cn1nc(C(=O)N2CC[C@H](O)[C@H](F)C2)c2c1CCC2)N1CCN(C2CCc3ccccc32)CC1 (single isomer, unassigned) [Example 439] | 168
COc1cc(F)cc(N2CCN(C(=O)Cn3nc(C(=O)N4C[C@@H](C)O[C@@H](C)C4)c4c3CCC4)CC2)c1 [Example 36, 2-{3-[(2R,6S)-2,6-dimethylmorpholine-4-carbonyl]-5,6-dihydrocyclopenta[c]pyrazol-1(4H)-yl}-1-[4-(3-fluoro-5-methoxyphenyl)piperazin-1-yl]ethan-1-one] | 55.5
Cc1cccc(N2CCN(C(=O)Cn3nc(C(=O)N4CC5CCC4CO5)c4c3CCC4)CC2)c1C (stereo not drawn) [Example 105, 1-[4-(2,3-dimethylphenyl)piperazin-1-yl]-2-[3-(2-oxa-5-azabicyclo[2.2.2]octane-5-carbonyl)-5,6-dihydrocyclopenta[c]pyrazol-1(4H)-yl]ethan-1-one] | 34.5
1-(2-(difluoromethyl)-4-(2,3-dimethylphenyl)piperazin-1-yl)-2-((3bR,4aR)-3-(4-hydroxypiperidine-1-carbonyl)-3b,4,4a,5-tetrahydro-1H-cyclopropa[3,4]cyclopenta[1,2-c]pyrazol-1-yl)ethanone [Example 387] | 205
COc1ccc(N2CCN(C(=O)Cn3nc(C(=O)N4C[C@@H](C)O[C@@H](C)C4)c4c3CCC4)CC2)c(C)c1 [Example 38, 2-{3-[(2R,6S)-2,6-dimethylmorpholine-4-carbonyl]-5,6-dihydrocyclopenta[c]pyrazol-1(4H)-yl}-1-[4-(4-methoxy-2-methylphenyl)piperazin-1-yl]ethan-1-one] | 124
Cc1c(Cl)cccc1N1CCN(C(=O)Cn2nc(C(=O)N3CCC(O)C(C)C3)c3c2C[C@H]2C[C@@H]32)CC1 (stereo in doubt) [Example 353, 1-(4-(3-chloro-2-methylphenyl)piperazin-1-yl)-2-((3bR,4aR)-3-((3R,4S)-4-hydroxy-3-methylpiperidine-1-carbonyl)-3b,4,4a,5-tetrahydro-1H-cyclopropa[3,4]cyclopenta[1,2-c]pyrazol-1-yl)ethanone] | 1.18
Cc1cccc(N2CCN(C(=O)Cn3nc(C(=O)N4CCC5(CC4)CN(C)C(=O)O5)c4c3CCC4)CC2)c1C [Example 81, 8-(1-(2-(4-(2,3-dimethylphenyl)piperazin-1-yl)-2-oxoethyl)-1,4,5,6-tetrahydrocyclopenta[c]pyrazole-3-carbonyl)-3-methyl-1-oxa-3,8-diazaspiro[4.5]decan-2-one] | 5.8
